Assay results from publication PMC6900016, “Synthesis of Indomorphan Pseudo‐Natural Product Inhibitors of Glucose Transporters GLUT‐1 and ‐3” (Angewandte Chemie (International Ed. in English), 2019).

Experiments:
Experiment in all cases: cells
Parameters in all cases: Cell growth inhibition, sulforhodamine B total protein staining
[1] = test system: 5637; settings: 72 h growth; read-out: Cell growth inhibition IC50/µM
In short: (§1)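 72 h exposure of a 94-cell-line panel to Glupin; growth measured by sulforhodamine B total-protein staining after TCA fixation (10% adherent, 50% suspension/semi-adherent, 1 h at 4 °C). IC50 derived from growth inhibition.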

[2] = test system: A375; settings: Homo sapiens, A-375; 72 h growth; read-out: Cell growth inhibition IC50/µM
In short: as §1

[3] = test system: DLD1; settings: Homo sapiens, DLD-1; 72 h growth; read-out: Cell growth inhibition IC50/µM
In short: as §1

[4] = test system: GRANTA519; settings: Homo sapiens, Granta-519; 72 h growth; read-out: Cell growth inhibition IC50/µM
In short: as §1

[5] = test system: HCT15; settings: Homo sapiens, HCT-15; 72 h growth; read-out: Cell growth inhibition IC50/µM
In short: as §1

[6] = test system: HEPG2; settings: Homo sapiens, HepG2; 72 h growth; read-out: Cell growth inhibition IC50/µM
In short: as §1

[7] = test system: IMR90; settings: Homo sapiens, IMR-90; 72 h growth; read-out: Cell growth inhibition IC50/µM
In short: as §1

[8] = test system: JEG3; settings: Homo sapiens, JEG-3; 72 h growth; read-out: Cell growth inhibition IC50/µM
In short: as §1

[9] = test system: JIMT1; settings: Homo sapiens, JIMT-1; 72 h growth; read-out: Cell growth inhibition IC50/µM
In short: as §1

[10] = test system: L363; settings: Homo sapiens, L-363; 72 h growth; read-out: Cell growth inhibition IC50/µM
In short: as §1

[11] = test system: MDAMB435; settings: Homo sapiens, MDA-MB-435; 72 h growth; read-out: Cell growth inhibition IC50/µM
In short: as §1

[12] = test system: MDAMB436; settings: Homo sapiens, MDA-MB-436; 72 h growth; read-out: Cell growth inhibition IC50/µM
In short: as §1

[13] = test system: MG63; settings: Homo sapiens, MG-63; 72 h growth; read-out: Cell growth inhibition IC50/µM
In short: as §1

[14] = test system: MT3; settings: MT-3; 72 h growth; read-out: Cell growth inhibition IC50/µM
In short: as §1

[15] = test system: MV411; settings: Homo sapiens, MV4-11; 72 h growth; read-out: Cell growth inhibition IC50/µM
In short: as §1

[16] = test system: OVCAR3; settings: Homo sapiens, OVCAR-3; 72 h growth; read-out: Cell growth inhibition IC50/µM
In short: as §1

[17] = test system: PLCPRF5; settings: Homo sapiens, PLC-PRF-5; 72 h growth; read-out: Cell growth inhibition IC50/µM
In short: as §1

[18] = test system: RAMOS; settings: Homo sapiens, Ramos; 72 h growth; read-out: Cell growth inhibition IC50/µM
In short: as §1

[19] = test system: RD; settings: Homo sapiens, RD; 72 h growth; read-out: Cell growth inhibition IC50/µM
In short: as §1

[20] = test system: SKNAS; settings: Homo sapiens, SK-N-AS; 72 h growth; read-out: Cell growth inhibition IC50/µM
In short: as §1

[21] = test system: SW620; settings: Homo sapiens, SW-620; 72 h growth; read-out: Cell growth inhibition IC50/µM
In short: as §1

[22] = test system: TE671; settings: Homo sapiens, TE-671; 72 h growth; read-out: Cell growth inhibition IC50/µM
In short: as §1

[23] = test system: UO31; settings: Homo sapiens, UO-31; 72 h growth; read-out: Cell growth inhibition IC50/µM
In short: as §1

Compound: CCOC(=O)Cn1c2c(c3ccccc31)C[C@@H]1C[C@H]2C(OC)CN1C(=O)c1cccnc1SC (single isomer, unassigned; (+)) [(+)-5a, Glupin]
- IC50 [1]: 0.114 µM
- IC50 [2]: 0.659 µM
- IC50 [3]: 0.825 µM
- IC50 [4]: > 30 µM
- IC50 [5]: 0.407 µM
- IC50 [6]: > 30 µM
- IC50 [7]: > 30 µM
- IC50 [8]: 0.933 µM
- IC50 [9]: 0.113 µM
- IC50 [10]: 2.87 µM
- IC50 [11]: 0.513 µM
- IC50 [12]: 11.1 µM
- IC50 [13]: > 30 µM
- IC50 [14]: 2.54 µM
- IC50 [15]: > 30 µM
- IC50 [16]: > 30 µM
- IC50 [17]: > 30 µM
- IC50 [18]: 0.212 µM
- IC50 [19]: 0.842 µM
- IC50 [20]: 0.175 µM
- IC50 [21]: > 30 µM
- IC50 [22]: 0.299 µM
- IC50 [23]: 0.109 µM
